Measurements reported in patent US9062028B2, “Bicyclic nitrogen containing heteroaryl TGR5 receptor modulators” (Bristol-Myers Squibb Company, priority 2011, dated 2015).
Where a name gives a salt, the structure may show the parent alone.

Experiments:
[1] = target: T1, recombinant human DGAT1 (Homo sapiens, UniProt O75907); experiment: Diacylglycerol Acyltransferase (DGAT) Assay; format: biochemical; details: membranes from Sf9 cells expressing recombinant human DGAT1; 2-monooleoylglycerol and [3H]-oleoyl-CoA as substrates; read-out: IC50 against the DGAT1 enzyme
T1 construct: made in house; host or cells: Sf9 insect cells (baculovirus), membrane preparation
T1 sequence (O75907 1-488): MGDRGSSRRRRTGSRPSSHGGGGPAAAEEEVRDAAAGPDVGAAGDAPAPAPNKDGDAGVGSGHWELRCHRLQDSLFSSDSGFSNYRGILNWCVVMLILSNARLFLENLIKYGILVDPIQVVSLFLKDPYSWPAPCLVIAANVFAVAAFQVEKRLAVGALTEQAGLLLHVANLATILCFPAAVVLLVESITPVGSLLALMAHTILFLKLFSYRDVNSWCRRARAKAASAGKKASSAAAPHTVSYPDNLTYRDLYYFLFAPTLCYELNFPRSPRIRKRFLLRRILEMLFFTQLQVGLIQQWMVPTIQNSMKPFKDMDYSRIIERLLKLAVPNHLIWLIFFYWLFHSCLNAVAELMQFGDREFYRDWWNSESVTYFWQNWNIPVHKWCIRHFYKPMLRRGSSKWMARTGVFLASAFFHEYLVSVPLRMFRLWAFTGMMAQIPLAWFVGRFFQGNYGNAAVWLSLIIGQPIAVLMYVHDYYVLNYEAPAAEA
Procedure: Diacylglycerol Acyltransferase (DGAT) Assay
DGAT1 enzyme was assayed using membranes isolated from Sf9 cells expressing the recombinant human DGAT1 cDNA with 2-monooleoylglycerol and [^3H]-oleoyl-CoA as substrates as described by Seethala et al. (Anal Biochem., 383(2):144-150 (Dec. 15, 2008)). Briefly, the assays were conducted in 384-well plates in a total volume of 30 μl at 25° C. In each assay, 200 ng of recombinant human DGAT1 membrane was incubated with 10 μM of 2-monooleoylglycerol and 15 μM of [^3H]-oleoyl-CoA in 100 mM potassium phosphate (pH 7.4) for 20 min with various concentrations of compounds delivered in DMSO. The assay was terminated by the addition of 20 μl of Stopping Solution (7.5 mg/ml Yittrium Oxide Polylysine beads, 3.3 mg/ml Fraction V BSA and 200 μM Mercuric chloride in 50 mM HEPES, pH 7.4). The signal was measured 1 h after quenching the reaction using LEADSEEKER^SM for 5 minutes. To calculate the degree of inhibition, the zero level of enzyme activity (blank) was defined by the above assay procedure using membrane form Sf9 cell uninfected with baculovirus (Naive) and the 100% level of DGAT1 enzyme activity was defined by human […] DGAT1 assay with the vehicle DMSO. The IC50s of inhibitors were determined by logistic 4 parameter equation in XL-fit.

[2] = target: T2, recombinant human TGR5 (Homo sapiens, UniProt Q8TDU6); experiment: cAMP assay (cAMP accumulation, HTRF) in CHOK1 cells stably expressing TGR5; format: cell-based; details: CHOK1 cells stably expressing human TGR5, 30 minutes at RT, 1% DMSO
T2 construct: expressed in transfected cells
T2 sequence (Q8TDU6 1-330): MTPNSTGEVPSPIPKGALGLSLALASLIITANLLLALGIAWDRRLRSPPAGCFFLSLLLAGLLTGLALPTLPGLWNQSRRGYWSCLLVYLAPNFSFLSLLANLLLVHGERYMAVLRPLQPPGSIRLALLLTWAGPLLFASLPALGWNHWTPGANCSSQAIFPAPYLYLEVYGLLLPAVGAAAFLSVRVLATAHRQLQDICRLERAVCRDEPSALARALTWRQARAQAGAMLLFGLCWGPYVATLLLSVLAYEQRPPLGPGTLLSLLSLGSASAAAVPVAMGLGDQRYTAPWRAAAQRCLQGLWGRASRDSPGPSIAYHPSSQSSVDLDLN
How it was run: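 Agonist-induced cAMP accumulation: stable TGR5-CHOK1 cells treated 30 min at RT with compound (1% DMSO) plus 0.1 mM IBMX. HTRF ratio converted to nM cAMP via standard curve; EC50 from four-parameter logistic fit, midpoint between baseline and maximum.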

Structure (SMILES)	IC50 [1] [µM]	EC50 [2] [nM]
Cc1cccc(OCCCC(=O)N2CCCc3c(-c4cnn(CC(=O)O)c4)cccc32)c1C [Example 1, 2-(4-(1-(4-(2,3-Dimethylphenoxy)butanoyl)-1,2,3,4-tetrahydroquinolin-5-yl)-1H-pyrazol-1-yl)acetic acid]	> 10	3540
Cc1cccc(OCCCC(=O)N2CCCc3c(-c4cnn(Cc5cccc(NC(=O)NCS(=O)(=O)O)c5)c4)cccc32)c1C [Example 86, (3-(3-((4-(1-(4-(2,3-Dimethylphenoxy)butanoyl)-1,2,3,4-tetrahydroquinolin-5-yl)-1H-pyrazol-1-yl)methyl)phenyl)ureido)methanesulfonic acid]	> 10	
Cc1cccc(OCCCC(=O)N2CCCc3c(-c4ccnc(Nc5ccc(C(=O)O)cc5)c4)cccc32)c1C [Example 168A, 4-(4-(1-(4-(2,3-Dimethylphenoxy)butanoyl)-1,2,3,4-tetrahydroquinolin-5-yl)pyridin-2-ylamino) benzoic acid]	> 10	
Cc1c(Cl)cccc1OCCCC(=O)N1C[C@@H]2C[C@@H]2c2c(-c3cnn(Cc4cccc(C(=O)NCCS(=O)(=O)O)c4)c3)cccc21 [Example 138A, 2-(3-((4-((1aR,7bS)-3-(4-(3-Chloro-2-methylphenoxy)butanoyl)-1a,2,3,7b-tetrahydro-1H-cyclopropa[c]quinolin-7-yl)-1H-pyrazol-1-yl)methyl)benzamido) ethanesulfonic acid]	> 10	24
Cc1cccc(OCCCC(=O)N2CCOc3c(-c4cnn(Cc5cccc(NC(=O)NCCS(=O)(=O)O)c5)c4)cccc32)c1C [Example 177N, 2-(3-(3-((4-(4-(4-(2,3-Dimethylphenoxy)butanoyl)-3,4-dihydro-2H-benzo[b][1,4]oxazin-8-yl)-1H-pyrazol-1-yl)methyl)phenyl)ureido) ethanesulfonic acid]	> 10	
Cc1cccc(OCCCC(=O)N2CCCc3c(-c4cnn(Cc5cccc(OCCP(=O)(O)O)c5)c4)cccc32)c1C [Example 69M, 2-(3-((4-(1-(4-(2,3-Dimethylphenoxy)butanoyl)-1,2,3,4-tetrahydroquinolin-5-yl)-1H-pyrazol-1-yl)methyl)phenoxy)ethylphosphonic acid]	> 10	
Cc1cccc(OCCCC(=O)N2CCOc3c(-c4cnn(Cc5c(F)cc(C(=O)NCC[N+](C)(C)C)cc5Cl)c4)cccc32)c1C [Example 177P, 2-(3-Chloro-4-((4-(4-(4-(2,3-dimethylphenoxy)butanoyl)-3,4-dihydro-2H-benzo[b][1,4]oxazin-8-yl)-1H-pyrazol-1-yl)methyl)-5-fluorobenzamido)-N,N,N-trimethylethanaminium, TFA]	> 10	

Next, values leading:

IC50 [1] [µM]	EC50 [2] [nM]	Structure (SMILES)
> 10		Cc1cccc(OCCCC(=O)N2CCCc3c(-c4cnn(Cc5cccc(OCCS(=O)(=O)O)c5)c4)cccc32)c1C [Example 215, 2-(3-((4-(1-(4-(2,3-Dimethylphenoxy)butanoyl)-1,2,3,4-tetrahydroquinolin-5-yl)-1H-pyrazol-1-yl)methyl)phenoxy)ethanesulfonic acid]
> 10	47	Cc1c(Cl)cccc1OCCCC(=O)N1C[C@@H]2C[C@@H]2c2c(-c3cnn(Cc4cccc(C(=O)O)c4)c3)cccc21 (single isomer, unassigned) [Example 231]
> 10		Cc1cccc(OCCCC(=O)N2C[C@@H]3C[C@@H]3c3c(-c4cccc(COC(=O)NCCC(=O)O)c4)cccc32)c1C (single isomer, unassigned) [Example 237]
